Legend:
[1] = molecular target: Serine/threonine-protein kinase PAK 1 (Homo sapiens) (UniProt Q13153); experiment: Residual activity of PAK1 at 0.1 uM by microplate scintillation counting
[2] = molecular target: Cyclin-dependent kinase 1/cyclin B1 (Homo sapiens) (UniProt P06493+P14635); experiment: Residual activity of CDK1/CyclinB1 at 0.1 uM by microplate scintillation counting; type: protein-complex assay
[3] = molecular target: Mitogen-activated protein kinase kinase kinase kinase 4 (Homo sapiens) (UniProt O95819); experiment: Residual activity of MAP4K4 at 1 uM by microplate scintillation counting
[4] = molecular target: Fibroblast growth factor receptor 2 (Homo sapiens) (UniProt P21802); experiment: Residual activity of FGFR2 at 0.1 uM by microplate scintillation counting
[5] = molecular target: Ephrin type-A receptor 5 (Homo sapiens) (UniProt P54756); experiment: Residual activity of EPHA5 at 0.1 uM by microplate scintillation counting
[6] = molecular target: Cyclin-dependent kinase 16 (Homo sapiens) (UniProt Q00536); experiment: Residual activity of PCTAIRE1 at 1 uM by microplate scintillation counting
[7] = molecular target: T1, Ephrin type-B receptor 1 (Homo sapiens) (UniProt P54762); experiment: Residual activity of EPHB1 at 10 uM by microplate scintillation counting
T1 sequence (whole entry): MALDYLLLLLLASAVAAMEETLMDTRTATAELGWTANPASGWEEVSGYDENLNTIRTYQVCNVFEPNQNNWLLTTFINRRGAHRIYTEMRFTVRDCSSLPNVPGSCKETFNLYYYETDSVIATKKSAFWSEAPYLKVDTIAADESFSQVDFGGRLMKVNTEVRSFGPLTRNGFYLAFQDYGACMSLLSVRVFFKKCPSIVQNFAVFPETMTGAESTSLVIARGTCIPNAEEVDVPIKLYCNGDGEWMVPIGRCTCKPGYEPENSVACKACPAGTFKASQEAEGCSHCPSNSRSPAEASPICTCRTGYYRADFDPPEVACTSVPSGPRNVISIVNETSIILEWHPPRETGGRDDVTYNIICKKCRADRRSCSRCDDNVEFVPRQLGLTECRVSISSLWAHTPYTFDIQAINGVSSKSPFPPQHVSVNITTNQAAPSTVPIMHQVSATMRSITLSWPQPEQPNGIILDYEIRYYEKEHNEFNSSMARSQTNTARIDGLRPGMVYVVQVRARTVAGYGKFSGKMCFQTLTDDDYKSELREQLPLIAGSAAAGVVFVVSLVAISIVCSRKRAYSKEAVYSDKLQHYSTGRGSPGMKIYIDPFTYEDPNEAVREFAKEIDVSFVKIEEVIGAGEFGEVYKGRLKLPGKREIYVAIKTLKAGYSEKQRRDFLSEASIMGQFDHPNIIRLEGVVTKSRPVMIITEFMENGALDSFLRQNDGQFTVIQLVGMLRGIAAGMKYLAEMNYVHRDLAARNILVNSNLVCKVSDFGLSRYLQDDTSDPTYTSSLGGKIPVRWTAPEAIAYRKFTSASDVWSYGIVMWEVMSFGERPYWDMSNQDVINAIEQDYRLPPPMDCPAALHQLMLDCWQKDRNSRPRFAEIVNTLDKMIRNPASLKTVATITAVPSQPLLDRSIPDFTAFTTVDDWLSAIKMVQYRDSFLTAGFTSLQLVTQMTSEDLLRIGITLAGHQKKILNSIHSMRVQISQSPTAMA

[8] = tested on: Fibroblast growth factor receptor 1 (Homo sapiens), P11362 [V561M]; experiment: Residual activity of FGFR1 V561M mutant at 10 uM by microplate scintillation counting
[9] = molecular target: T2, cGMP-dependent protein kinase 2 (Homo sapiens) (UniProt Q13237); experiment: Residual activity of PRKG2 at 10 uM by microplate scintillation counting
T2 sequence (whole entry): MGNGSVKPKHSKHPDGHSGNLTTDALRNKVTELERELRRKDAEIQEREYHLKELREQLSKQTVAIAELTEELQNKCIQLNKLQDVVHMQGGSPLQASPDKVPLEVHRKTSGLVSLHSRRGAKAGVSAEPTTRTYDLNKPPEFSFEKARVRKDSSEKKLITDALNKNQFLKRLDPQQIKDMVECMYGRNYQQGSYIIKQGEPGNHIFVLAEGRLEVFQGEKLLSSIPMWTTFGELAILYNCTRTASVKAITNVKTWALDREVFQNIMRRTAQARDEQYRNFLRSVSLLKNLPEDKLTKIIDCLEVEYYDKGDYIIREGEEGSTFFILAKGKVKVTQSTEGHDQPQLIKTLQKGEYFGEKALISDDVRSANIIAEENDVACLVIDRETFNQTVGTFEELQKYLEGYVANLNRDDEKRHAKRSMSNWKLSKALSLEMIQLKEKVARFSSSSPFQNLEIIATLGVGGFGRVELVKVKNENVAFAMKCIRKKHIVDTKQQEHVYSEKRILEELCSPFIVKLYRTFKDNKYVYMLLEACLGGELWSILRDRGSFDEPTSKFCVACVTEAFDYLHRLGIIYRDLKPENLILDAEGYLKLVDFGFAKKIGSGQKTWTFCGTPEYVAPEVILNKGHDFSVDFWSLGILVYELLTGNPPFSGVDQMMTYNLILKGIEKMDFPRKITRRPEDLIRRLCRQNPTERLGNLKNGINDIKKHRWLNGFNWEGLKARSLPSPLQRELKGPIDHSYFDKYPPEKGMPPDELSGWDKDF

[10] = molecular target: Death-associated protein kinase 3 (Homo sapiens) (UniProt O43293); experiment: Residual activity of DAPK3 at 1 uM by microplate scintillation counting
[11] = molecular target: Proto-oncogene tyrosine-protein kinase ROS (Homo sapiens) (UniProt P08922); experiment: Residual activity of ROS at 0.1 uM by microplate scintillation counting
Proto-oncogene tyrosine-protein kinase ROS (Homo sapiens), sequence (P08922 whole entry): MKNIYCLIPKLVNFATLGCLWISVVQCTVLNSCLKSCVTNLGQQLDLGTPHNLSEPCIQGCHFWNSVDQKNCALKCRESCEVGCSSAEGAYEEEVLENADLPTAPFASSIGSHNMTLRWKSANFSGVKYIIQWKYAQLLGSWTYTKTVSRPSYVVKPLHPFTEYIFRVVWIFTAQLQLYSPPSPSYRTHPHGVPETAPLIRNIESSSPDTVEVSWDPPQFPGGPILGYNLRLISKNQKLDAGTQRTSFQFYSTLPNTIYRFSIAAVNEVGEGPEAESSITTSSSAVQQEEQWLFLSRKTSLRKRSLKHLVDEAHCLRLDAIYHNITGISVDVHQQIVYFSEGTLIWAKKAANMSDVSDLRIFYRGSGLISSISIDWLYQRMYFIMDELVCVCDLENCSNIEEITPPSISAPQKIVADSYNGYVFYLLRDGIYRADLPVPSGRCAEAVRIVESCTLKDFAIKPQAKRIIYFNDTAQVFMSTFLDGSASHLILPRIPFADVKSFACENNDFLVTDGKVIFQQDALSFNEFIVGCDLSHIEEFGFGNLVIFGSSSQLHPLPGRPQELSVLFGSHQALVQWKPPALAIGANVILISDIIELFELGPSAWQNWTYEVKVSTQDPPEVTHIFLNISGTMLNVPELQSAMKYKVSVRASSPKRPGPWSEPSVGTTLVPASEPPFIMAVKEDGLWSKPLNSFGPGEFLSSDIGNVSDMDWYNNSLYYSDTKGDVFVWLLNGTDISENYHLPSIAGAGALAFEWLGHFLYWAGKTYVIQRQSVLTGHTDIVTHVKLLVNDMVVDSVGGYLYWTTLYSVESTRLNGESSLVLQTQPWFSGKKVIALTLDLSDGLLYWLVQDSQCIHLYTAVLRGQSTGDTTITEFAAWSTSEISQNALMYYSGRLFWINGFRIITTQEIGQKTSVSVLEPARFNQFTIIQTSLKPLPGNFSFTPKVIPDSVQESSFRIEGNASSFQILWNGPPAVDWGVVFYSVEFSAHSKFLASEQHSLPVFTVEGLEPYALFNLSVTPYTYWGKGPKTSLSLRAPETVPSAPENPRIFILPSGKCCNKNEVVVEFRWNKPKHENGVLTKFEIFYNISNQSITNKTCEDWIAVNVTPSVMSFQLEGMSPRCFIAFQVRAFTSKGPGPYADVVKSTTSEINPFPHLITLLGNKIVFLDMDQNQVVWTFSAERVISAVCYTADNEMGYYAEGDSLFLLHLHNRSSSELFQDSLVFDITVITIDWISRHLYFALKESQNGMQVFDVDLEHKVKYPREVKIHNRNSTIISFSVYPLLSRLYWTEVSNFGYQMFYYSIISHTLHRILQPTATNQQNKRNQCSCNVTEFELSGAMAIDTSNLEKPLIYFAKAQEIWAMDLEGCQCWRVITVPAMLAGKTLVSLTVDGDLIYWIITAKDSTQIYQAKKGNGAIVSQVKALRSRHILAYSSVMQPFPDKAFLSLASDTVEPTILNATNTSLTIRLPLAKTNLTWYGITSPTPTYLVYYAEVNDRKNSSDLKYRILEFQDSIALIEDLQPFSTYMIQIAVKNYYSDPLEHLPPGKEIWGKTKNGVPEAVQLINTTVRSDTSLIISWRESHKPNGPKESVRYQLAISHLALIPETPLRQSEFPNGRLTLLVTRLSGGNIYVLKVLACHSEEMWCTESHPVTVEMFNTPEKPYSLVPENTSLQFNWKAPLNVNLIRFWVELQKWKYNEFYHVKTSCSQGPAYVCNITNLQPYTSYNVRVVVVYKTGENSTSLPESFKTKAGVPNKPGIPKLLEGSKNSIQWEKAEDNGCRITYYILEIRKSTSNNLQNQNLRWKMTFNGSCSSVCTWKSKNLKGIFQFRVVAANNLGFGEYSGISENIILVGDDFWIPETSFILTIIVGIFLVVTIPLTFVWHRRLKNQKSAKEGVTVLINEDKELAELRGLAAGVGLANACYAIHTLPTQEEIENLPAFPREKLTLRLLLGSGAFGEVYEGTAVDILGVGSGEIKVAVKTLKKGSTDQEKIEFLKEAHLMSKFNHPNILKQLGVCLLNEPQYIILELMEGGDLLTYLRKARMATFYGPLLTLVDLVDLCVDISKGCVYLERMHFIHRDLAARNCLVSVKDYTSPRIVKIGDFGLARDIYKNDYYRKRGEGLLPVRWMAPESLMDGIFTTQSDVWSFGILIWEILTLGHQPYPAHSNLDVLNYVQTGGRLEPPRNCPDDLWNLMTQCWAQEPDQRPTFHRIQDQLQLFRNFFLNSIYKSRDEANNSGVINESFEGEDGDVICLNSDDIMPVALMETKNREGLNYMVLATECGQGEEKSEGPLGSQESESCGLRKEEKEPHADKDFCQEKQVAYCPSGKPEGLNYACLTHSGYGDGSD

Cyclin-dependent kinase 1/cyclin B1 (Homo sapiens), sequence (P06493 whole entry, looked up): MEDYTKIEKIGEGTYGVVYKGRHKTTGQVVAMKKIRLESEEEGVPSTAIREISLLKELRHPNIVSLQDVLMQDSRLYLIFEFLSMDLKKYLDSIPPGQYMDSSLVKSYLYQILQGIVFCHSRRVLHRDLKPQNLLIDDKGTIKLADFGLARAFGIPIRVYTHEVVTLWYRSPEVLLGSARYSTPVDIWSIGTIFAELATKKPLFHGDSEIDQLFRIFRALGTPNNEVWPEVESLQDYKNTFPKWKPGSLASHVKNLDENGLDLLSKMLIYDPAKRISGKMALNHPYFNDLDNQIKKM
Cyclin-dependent kinase 1/cyclin B1 (Homo sapiens), sequence (P14635 whole entry, looked up): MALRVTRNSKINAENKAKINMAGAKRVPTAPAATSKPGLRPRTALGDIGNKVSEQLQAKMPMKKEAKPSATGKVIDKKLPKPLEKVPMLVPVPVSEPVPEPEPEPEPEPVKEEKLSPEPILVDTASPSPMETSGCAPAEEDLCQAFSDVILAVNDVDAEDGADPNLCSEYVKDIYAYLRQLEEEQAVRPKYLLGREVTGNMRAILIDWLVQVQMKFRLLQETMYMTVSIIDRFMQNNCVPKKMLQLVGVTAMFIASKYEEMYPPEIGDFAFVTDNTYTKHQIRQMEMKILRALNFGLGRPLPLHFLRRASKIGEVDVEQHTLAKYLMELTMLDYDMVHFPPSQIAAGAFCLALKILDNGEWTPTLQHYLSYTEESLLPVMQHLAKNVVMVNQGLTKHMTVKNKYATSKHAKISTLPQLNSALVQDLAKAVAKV
Mitogen-activated protein kinase kinase kinase kinase 4 (Homo sapiens), sequence (O95819 2-1239 limits assumed): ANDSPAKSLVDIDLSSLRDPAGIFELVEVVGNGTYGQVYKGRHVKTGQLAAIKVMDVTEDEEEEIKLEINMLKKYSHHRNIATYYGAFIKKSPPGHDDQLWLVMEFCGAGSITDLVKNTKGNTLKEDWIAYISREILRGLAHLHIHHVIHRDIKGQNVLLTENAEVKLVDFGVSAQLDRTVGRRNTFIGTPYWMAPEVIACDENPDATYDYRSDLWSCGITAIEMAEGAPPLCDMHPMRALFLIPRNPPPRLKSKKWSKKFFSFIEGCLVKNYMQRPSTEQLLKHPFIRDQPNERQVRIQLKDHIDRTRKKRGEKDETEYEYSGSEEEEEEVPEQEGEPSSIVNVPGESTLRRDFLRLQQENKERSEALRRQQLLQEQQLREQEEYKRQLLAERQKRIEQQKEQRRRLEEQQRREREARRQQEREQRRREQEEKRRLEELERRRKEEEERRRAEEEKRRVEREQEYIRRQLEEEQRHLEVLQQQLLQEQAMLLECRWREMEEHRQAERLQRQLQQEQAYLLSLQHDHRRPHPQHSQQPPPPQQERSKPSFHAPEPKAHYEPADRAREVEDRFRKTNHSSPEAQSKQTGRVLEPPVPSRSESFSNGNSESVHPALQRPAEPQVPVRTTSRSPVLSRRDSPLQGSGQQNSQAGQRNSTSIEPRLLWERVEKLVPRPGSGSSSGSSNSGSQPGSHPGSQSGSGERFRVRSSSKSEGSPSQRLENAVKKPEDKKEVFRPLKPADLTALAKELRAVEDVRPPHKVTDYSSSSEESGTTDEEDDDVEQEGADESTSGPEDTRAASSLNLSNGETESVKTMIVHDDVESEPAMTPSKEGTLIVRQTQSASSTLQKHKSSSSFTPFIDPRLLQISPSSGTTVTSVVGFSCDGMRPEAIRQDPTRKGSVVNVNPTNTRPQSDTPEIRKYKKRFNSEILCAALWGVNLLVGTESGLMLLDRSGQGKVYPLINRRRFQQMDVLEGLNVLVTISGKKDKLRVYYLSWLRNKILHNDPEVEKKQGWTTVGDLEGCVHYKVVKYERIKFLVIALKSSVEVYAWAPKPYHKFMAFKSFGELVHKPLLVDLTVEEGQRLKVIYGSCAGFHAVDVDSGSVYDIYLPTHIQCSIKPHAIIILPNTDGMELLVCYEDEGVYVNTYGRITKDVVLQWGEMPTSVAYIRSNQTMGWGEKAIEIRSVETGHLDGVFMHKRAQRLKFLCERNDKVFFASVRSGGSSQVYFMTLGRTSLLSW
Fibroblast growth factor receptor 2 (Homo sapiens), sequence (P21802 22-821 limits assumed): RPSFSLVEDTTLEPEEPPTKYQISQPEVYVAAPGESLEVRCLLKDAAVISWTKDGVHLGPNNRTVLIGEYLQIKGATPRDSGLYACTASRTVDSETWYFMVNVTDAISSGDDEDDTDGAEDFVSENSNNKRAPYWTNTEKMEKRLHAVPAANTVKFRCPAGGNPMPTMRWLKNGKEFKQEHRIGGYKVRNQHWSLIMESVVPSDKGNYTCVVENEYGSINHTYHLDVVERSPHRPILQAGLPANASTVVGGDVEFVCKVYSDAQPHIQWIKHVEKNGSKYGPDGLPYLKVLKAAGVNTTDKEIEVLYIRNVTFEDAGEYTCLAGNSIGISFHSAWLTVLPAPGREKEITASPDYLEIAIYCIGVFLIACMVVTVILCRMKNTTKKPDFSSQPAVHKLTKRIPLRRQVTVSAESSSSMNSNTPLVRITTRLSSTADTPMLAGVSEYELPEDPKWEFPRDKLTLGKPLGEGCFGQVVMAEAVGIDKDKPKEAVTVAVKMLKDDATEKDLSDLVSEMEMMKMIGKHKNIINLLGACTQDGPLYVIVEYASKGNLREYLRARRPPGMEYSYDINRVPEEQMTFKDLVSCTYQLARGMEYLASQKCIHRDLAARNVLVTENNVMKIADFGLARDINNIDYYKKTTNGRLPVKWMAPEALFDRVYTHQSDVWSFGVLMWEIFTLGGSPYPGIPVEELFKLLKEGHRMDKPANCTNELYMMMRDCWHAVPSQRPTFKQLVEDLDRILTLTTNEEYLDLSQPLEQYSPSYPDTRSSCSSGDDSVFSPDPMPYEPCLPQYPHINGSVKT

| residual activity [1] [%] | residual activity [2] [%] | residual activity [3] [%] | residual activity [4] [%] | residual activity [5] [%] | residual activity [6] [%] | residual activity [7] [%] | residual activity [8] [%] | residual activity [9] [%] | residual activity [11] [%] | Compound | residual activity [10] [%] |
| --- | --- | --- | --- | --- | --- | --- | --- | --- | --- | --- | --- |
| 99 | 84 | 88 | 103 | 103 | 81 | 223 | 47 | 92 | 84 | COc1cc2c(Oc3ccc(-c4nc5ccccc5s4)cc3)ncnc2cc1OCCCN1CCCC1 | 86 |
| 97 | 90 | 81 | 101 | 81 | 88 | 429 | 32 | 119 | 91 | COc1cc2c(Oc3ccc(-c4nc5ccccc5s4)cc3)ncnc2cc1OCCCN1CCN(C)CC1 | 84 |
| 93 | 87 | 97 | 105 | 97 | 86 | 124 | 26 | 96 | 98 | COc1cc2c(Oc3ccc(-c4nc5ccccc5s4)cc3F)ncnc2cc1OCCCN1CCN(C)CC1 | 81 |

Reference: ChEMBL document CHEMBL1152560, “Substituted 2-arylbenzothiazoles as kinase inhibitors: hit-to-lead optimization” (Bioorg Med Chem, 2009)
